From patent US20260263563A1, “Method of Treatment of a Thoracolumbar Deformity in a Human Subject with Achondroplasia” (Ascendis Pharma Growth Disorders A/S, priority 2023, published 2026)
Like-named read-outs stand apart in the source and are kept apart here.

How the values were obtained:
Fgfr3^Y367C/+ mice = tested on: Fgfr3^Y367C/+ mice
Source text: The Y367C mutation was introduced into exon 9 of the mouse Fgfr3 gene along with a NEO cassette flanked by LoxP recombination sites. Due to the CMV promoter, the expression of the Fgfr3 Fgfr3^Y367C/+ is ubiquitous. Off-spring consisted of both Fgfr3^Y367C/+ and Fgfr3+/+ wild-type (WT) littermates.
Survival of pups was monitored daily during the 15 days of treatment and registered in treatment diaries.

[1] = tested on: prepubertal children with achondroplasia; conditions: for AGV: 100 μg CNP-38/kg/week group
Experimental: The study enrolled a minimum of 60 male and female prepubertal children with ACH aged 2 to 10 years old. The clinical trial is listed on www.clinicaltrials.gov under the ClinicalTrials.gov Identifier: NCT04085523. The objectives of the study were as follow:
This trial is a multicenter trial consisting of two treatment periods.
Height of subjects enrolled in the study of Example 3 was measured using a wall-mounted stadiometer. The same equipment was used at all visits for the same child. All instruments were calibrated as required by local requirements or per instrument manufacturer guidance prior to use.

[2] = tested on: prepubertal children with achondroplasia
Experimental: SF-10™ Health Survey for Children is a 10-item parent-completed survey that covers a wide range of domains affecting a child's functional health and well-being (QualityMetric.com), with 5 items primarily related to physical health (PhS), and 5 items primarily related to psyhocosial health (PsS).
The survey was conducted at the following time points; baseline and week 52.
SF-10 assesses, inter alia, physical health (PhS). 5 items of the SF-10 were selected for the assessment of physical health parameters as follows: • Limited in things that take some energy • Limited in bending, lifting, stooping • Limited in kind of schoolwork/activities due to physical health • Subjects health in general • How much bodily pain or discomfort
For each response provided by a subject, a value is assigned and used to calculate the overall physical summary score in accordance with established guidelines (See The SF-10 Health Survey for Children User's Guide by QualityMetric). For reference, in accordance with the User's Guide, the SF-10 scale scores were centered so that a score of 50 corresponds to an average score in a 2006 sample (a combination of general population and supplemental disability and chronic condition samples).

[3] = tested on: prepubertal children with achondroplasia; conditions: 50 and 100 μg/kg vs placebo, 52 weeks
Experimental: In the phase 2 study reported in Example 4, X-rays of the hand were taken at the placebo group (6 patients assessed), cohort 3, 50 μg/kg (9 patients assessed) and cohort 4, 100 μg/kg (7 patients assessed) and the Hand Metacarpal/Phalangeal Profile (MCPP) was assessed.

[4] = tested on: healthy adult male subjects
[5] = tested on: prepubertal children with achondroplasia; conditions: for Overall Scoliosis Incidence, Baseline: baseline (prior to treatment)
Experimental: X-rays (radiographs) were taken from subjects in the placebo group and cohort 4 in the Phase 2 Study trials, including those at the thoracolumbar spine (lateral and anterior-posterior/posterior-anterior (AP/PA)) and lower extremity (AP). The lateral X-rays (taken from the placebo group and the 100 μg/kg (cohort 4 group) at baseline and after 52 weeks of treatment were analyzed.
Methodology: From the spine radiographs, aspects related to spinal stenosis, spinal curvature, and spinal height were measured. To assess the size of the spinal canal in the lumbar region (L1-L5), which is smaller in ACH, interpedicular distance (IPD) and pedicle width (PW) are measured on the anterior-posterior/posterior-anterior (AP/PA) and lateral radiographs, respectively. At each level of the lumbar spine, IPD is measured as the distance between the most medial aspects of the pedicles of the spinal canal, and PW is measured from the posterior vertebral body line to the posterior laminar line. Scoliosis is assessed by measuring Cobb angles in the proximal thoracic, main thoracic, and lumbar regions of the AP/PA spine radiograph. On the lateral spine radiograph, Cobb angles for kyphosis are assessed in the thoracic (TK) and thoracolumbar (TLK) region and for lordosis in the lumbar region (LL). Spinal heights (both thoracic and total) are measured on the AP/PA spine radiograph. • Scoliosis: Cobb angles of the proximal thoracic (T1-T3), main thoracic (T2-L1), and lumbar (L1-L5) regions • Kyphosis: Cobb angles of the thoracic (T5-T12, TK) and thoracolumbar (T10-L2, TLK) regions • Lordosis: Cobb angles of the lumbar (L1-L5, LL) region • Thoracic spine height (T1 to T12) and Total spine height (T1 to S1)
As many of these parameters vary naturally during growth, published normative data from both healthy and ACH populations are being utilized to calculate Z-scores where possible. For spine kyphosis, data from Lee et al., 2012 (Journal of spinal disorders & techniques. 2012; 25(8):E259-63) and Abousamra et al. 2019 (Spine Deform. 2019 January; 7(1):163-170) were used to calculate Z-scores based on data from healthy and ACH children.
A decrease of the (Posterior Height/Middle Width) ratio is indicative of a normalization of vertebral morphology.

[6] = 50 and 100 μg/kg vs placebo, 52 weeks
[7] = cohorts 3 and 4 vs placebo, 52 weeks, initial data
[8] = single patient, after 52 weeks treatment
[9] = single patient, after 52 weeks treatment (100 μg/kg/week)
[10] = single patient, week 52, 100 μg/kg/week

Navepegritide [Compound (1)]
tolerability, adverse clinical signs (Fgfr3^Y367C/+ mice; Fgfr3^Y367C/+ pups, 15 days of treatment): well tolerated, and no adverse clinical signs were observed
Number of mice surviving to day 15 (Fgfr3^Y367C/+ mice; Fgfr3^Y367C/+ pups, 5.6 mg/kg/day s.c., 15 days from day 1 after birth, 14 mice included): 12
Number of mice surviving to day 15 (Fgfr3^Y367C/+ mice; Fgfr3^Y367C/+ pups, […] third day s.c., 13 mice included): 11
survival of pups compared with untreated pups (Fgfr3^Y367C/+ mice; either dose level, P<0.05, Log-rank (Mantel-Cox) test, untreated = vehicle treated and historic survival combined): significantly improved survival
registered incidence of maternal infanticide (Fgfr3^Y367C/+ mice; treated groups): marked reduction
AGV, LS Mean ([1]; 6 μg/kg/week, 52 weeks, n = 10, 95% CI [3.34, 4.84], p 0.6004 vs pooled placebo (4.35)): 4.09, n = 10 cm/year
Δ Height SDS (ACH-specific height SDS), LS Mean ([1]; 6 μg/kg/week, n = 10, 95% CI [−0.26, 0.17], p 0.8207 vs pooled placebo (−0.08)): −0.04, n = 10
AGV, LS Mean ([1]; 20 μg/kg/week, 52 weeks, n = 11, 95% CI [3.82, 5.22], p 0.7022 vs pooled placebo): 4.52, n = 11 cm/year
Δ Height SDS (ACH-specific height SDS), LS Mean ([1]; 20 μg/kg/week, n = 11, 95% CI [−0.17, 0.23], p 0.4107 vs pooled placebo): 0.03, n = 11
AGV, LS Mean ([1]; 50 μg/kg/week, 52 weeks, n = 10, 95% CI [4.43, 5.90], p 0.0849 vs pooled placebo): 5.16, n = 10 cm/year
Δ Height SDS (ACH-specific height SDS), LS Mean ([1]; 50 μg/kg/week, n = 10, 95% CI [−0.10, 0.32], p 0.1660 vs pooled placebo): 0.11, n = 10
AGV ([1]; 0 to 6 months): 5.167 cm/year
AGV ([1]; time period 6 to 12 months): 5.696 cm/year
AGV, LS Mean ([1]; 100 μg/kg/week, 52 weeks, n = 11, 95% CI [4.74, 6.11], p 0.0218 vs pooled placebo): 5.42, n = 11 cm/year
AGV, LS Mean ([1]; 100 μg/kg/week, 52 weeks, n = 11, 95% CI [4.74, 6.11], p 0.0218 vs pooled placebo, listed as compound (1)): 5.42 cm/year
Δ Height SDS (ACH-specific height SDS), LS Mean ([1]; 100 μg/kg/week, n = 11, 95% CI [0.02, 0.41], p 0.0283 vs pooled placebo): 0.22, n = 11
growth in Open Label Extension ([1]; 46 children switched from placebo or lower dose to 100 μg/kg/week, after one year): improved growth
AGV, LS Mean ([1]; Age < 5 years old, 6 μg/kg/week, n = 3, 95% CI [2.52, 6.10]): 4.31, n = 3 cm/year
AGV, LS Mean ([1]; Age < 5 years old, 20 μg/kg/week, n = 5, 95% CI [3.30, 6.15]): 4.72, n = 5 cm/year
AGV, LS Mean ([1]; Age < 5 years old, 50 μg/kg/week, n = 5, 95% CI [3.62, 6.52]): 5.07, n = 5 cm/year
AGV, LS Mean ([1]; Age < 5 years old, 100 μg/kg/week, n = 3, 95% CI [4.03, 7.87]): 5.95, n = 3 cm/year
AGV, LS Mean ([1]; Age ≥ 5 years old, 6 μg/kg/week, n = 7, 95% CI [2.87, 4.71]): 3.79, n = 7 cm/year
AGV, LS Mean ([1]; Age ≥ 5 years old, 20 μg/kg/week, n = 6, 95% CI [3.43, 5.15]): 4.29, n = 6 cm/year
AGV, LS Mean ([1]; Age ≥ 5 years old, 50 μg/kg/week, n = 5, 95% CI [4.39, 6.26]): 5.33, n = 5 cm/year
AGV, LS Mean ([1]; Age ≥ 5 years old, 100 μg/kg/week, n = 8, 95% CI [4.35, 5.90]): 5.12, n = 8 cm/year
SF-10 Physical Summary Score, Wk 52 (S.E) ([2]; 100 μg/kg (SC) weekly, week 52): 40.70 (6.87)
SF-10 Physical Summary Score, Change from Baseline ([2]; 100 μg/kg (SC) weekly, week 52, placebo −3.04 (3.82)): +5.91 (1.65)
SF-10 PsS score ([2]; 100 μg/kg weekly, after 52 weeks of treatment): improvement trend
SF-10 PhS score compared with baseline ([2]; 100 μg/kg weekly, week 52): marked increase
SF-10 Physical Summary, treated versus placebo ([2]; 100 μg/kg/week for one year (n=19) vs placebo (n=15), p=0.002, ages 5 years and older): statistically significant improved outcome
ACEM Emotional Well-being, treated versus placebo ([2]; 100 μg/kg/week for one year vs placebo, p=0.045): statistically significant improved outcome
ACEM Daily Living Function, treated versus placebo ([2]; 100 μg/kg/week for one year vs placebo, p=0.047): statistically significant improved outcome
hand length [3]: clear trend for dose dependent increase
blood pressure, heart rate, or safety laboratory test results ([4]; all investigated doses): No clinically relevant dose-dependent trends were observed
mean apparent t1/2 of free CNP-38 ([4]; single s.c. dose up to 150 μg CNP/kg, dose-independent): 120 h
immunogenic response ([4]; single s.c. doses): no evidence of immunogenic response
local tolerability findings ([4]; single s.c. doses): predominantly mild to moderate redness
most commonly reported (≥10% of subjects) treatment-emergent adverse events ([4]; single s.c. doses): headache, contact dermatitis, postural dizziness, (orthostatic) tachycardia, dizziness, and orthostatic hypotension
serious adverse effects or deaths ([4]; single s.c. doses): no serious adverse effects (AEs) or deaths reported
severity of most TEAEs ([4]; single s.c. doses): mild or moderate
tolerability ([4]; single s.c. doses up to 150 μg CNP/kg, all investigated doses): generally well tolerated
TLK Z-score (Healthy), Week 52 Change from Baseline (Mean ± SD) ([5]; 100 μg/kg/week, n 5, p < 0.05 vs placebo (ANCOVA), placebo −0.19 (0.318)): −1.004 (0.614)
TLK Z-score (ACH), Week 52 Change from Baseline (Mean ± SD) ([5]; 100 μg/kg/week, n 6, p < 0.05 vs placebo (ANCOVA), placebo −0.052 (0.242)): −0.416 (0.412)
TLK, Week 52 Change from Baseline (Mean ± SD) ([5]; 100 μg/kg/week, n 6, placebo −[…] (2.61)): −7.17 (4.94) degrees
interpedicular distance (IPD) [5, 6]: no clear effect
pedicular width (PW) [5, 6]: trend for patients on treatment to have an increase
Overall Scoliosis Incidence, After 52 weeks of Treatment ([5]; Cohort 3, 50 μg/kg): 0 out of 9
Overall Scoliosis Incidence, Baseline ([5]; Cohort 3, 50 μg/kg): 3 out of 9
Overall Scoliosis Incidence, After 52 weeks of Treatment ([5]; Cohort 4, 100 μg/kg): 1 out of 9
Overall Scoliosis Incidence, Baseline ([5]; Cohort 4, 100 μg/kg): 3 out of 9
thoracolumbar kyphosis ([5]; cohort 4 after 52 weeks of treatment): statistically significant reduction
kyphosis Cobb Angle [5, 7]: trend for a dose dependent reduction
scoliosis main thoracic Cobb Angle [5, 7]: trend for a dose dependent reduction
lumbar lordosis ([5]; phase 2 and open label extension trial): slight trend for an increase
Patient Angle, thoracic kyphosis (TK) ([5]; single patient one, baseline): 11.6 degrees
L1 vertebra LW, change from baseline [5, 8]: Δ4.1 mm
L1 vertebra MH, change from baseline [5, 8]: Δ1.4 mm
L1 vertebra MW, change from baseline [5, 8]: Δ5.9 mm
L1 vertebra PH, change from baseline [5, 8]: Δ1.5 mm
L1 vertebra LW (Lower Width) [5, 9]: 22.9 mm
L1 vertebra MH (Middle Height) [5, 9]: 15.0 mm
L1 vertebra MW (Middle Width) [5, 9]: 14.6 mm
L1 vertebra PH (Posterior height) [5, 9]: 15.8 mm
L1 vertebra PH/MW [5, 9]: 108 mm
L1 vertebra PH/MW, change from baseline ([5]; single patient, after 52 weeks treatment, [~80@T12/12]): Δ−56 [~80@T12/12] mm
L1 vertebra LW (Lower Width) ([5]; single patient, baseline): 18.8 mm
L1 vertebra MH (Middle Height) ([5]; single patient, baseline): 13.6 mm
L1 vertebra MW (Middle Width) ([5]; single patient, baseline): 8.7 mm
L1 vertebra PH (Posterior height) ([5]; single patient, baseline): 14.3 mm
L1 vertebra PH/MW ([5]; single patient, baseline): 164 mm
Patient Angle, lumbar lordosis (LL) ([5]; single patient, baseline): 58.3 degrees
Patient Angle, thoraco-lumbar kyphosis (TLK) ([5]; single patient, baseline): 24.0 degrees
apical wedging and shape of L1 vertebra on radiographs ([5]; single patient, baseline vs 52 weeks of treatment): noted decrease in apical wedging and normalization of the L1 vertebra
Patient Z-score TK3 ([5]; single patient, baseline, reference population 3 (Abousamra 2019) 20.0 ± 12.5): −0.7
Patient Z-score TLK3 ([5]; single patient, baseline, reference population 3, 18.5 ± 13.2): 0.4
Patient Z-score LL3 ([5]; single patient, baseline, reference population 3, 66.7 ± 17.5): −0.5
Patient Z-score TLK2 ([5]; single patient, baseline, reference population 5.0 ± 7.2): 2.6
Patient Z-score TK2 ([5]; single patient, baseline, reference population 31.6 ± 9.2): −2.2
Patient Z-score LL2 ([5]; single patient, baseline, reference population 44.4 ± 9.4): 1.5
Patient Angle, lumbar lordosis (LL) [5, 10]: 60.2 degrees
Patient Angle, thoracic kyphosis (TK) [5, 10]: 12.6 degrees
Patient Angle, thoraco-lumbar kyphosis (TLK) [5, 10]: 9.1 degrees
Patient Z-score TK2 ([5]; single patient, week 52, 100 μg/kg/week, reference 31.6 ± 9.2): −2.1
Patient Z-score TLK2 ([5]; single patient, week 52, reference 5 ± 7.2): 0.6
Patient Z-score LL2 ([5]; single patient, week 52, reference 44.4 ± 9.4): 1.7
Patient Z-score TLK3 ([5]; single patient, week 52, reference population 3, 18.5 ± 12.0): −0.6
Patient Z-score TK3 ([5]; single patient, week 52, reference population 3, 19.7 ± 13.2): −0.5
Patient Z-score LL3 ([5]; single patient, week 52, reference population 3, 66.0 ± 15.5): −0.4
